Assay results taken from patent publication US12049450B2, “Pyridyloxy-carboxylate derivative and preparation method therefor, herbicidal composition, and use” (Qingdao Kingagroot Chemical Compound Co., Ltd., priority 2018, dated 2024).

Columns and labels:
Format in all cases: in vivo
Monochoria vaginalis [1] = assay: Weed control effect evaluation in rice field soil pot; details: paddy pot, 1000 g/ha, 14 days after treatment; resistant to pyrazosulfuron-ethyl and penoxsulam
Description: (§1) The activity level standard of harmful plants destruction (i. e. growth inhibition rate) is as follows: • Level 5: the growth inhibition rate is greater than 85%; • Level 4: the growth inhibition rate is equal to or greater than 60% and less than 85%; • Level 3: the growth inhibition rate is equal to or greater than 40% and less than 60%; • Level 2: the growth inhibition rate is equal to or greater than 20% and less than 40%; • Level 1: the growth inhibition rate is equal to or greater than 5% and less than 20%; • Level 0: the growth inhibition rate is less than 5%;
(§2) Transplanted rice safety evaluation and weed control effect evaluation in rice field:
Rice field soil was loaded into a 1/1,000,000 ha pot. The seeds of Monochoria vaginalis were sowed and gently covered with soil, then left to stand still in greenhouse in the state of 0.5-1 cm of water storage. It was kept at 3-4 cm of water storage thereafter. The weeds were treated by dripping the WP or SC water diluents prepared according to the common preparation method of the compounds of the present invention with pipette homogeneously to achieve specified effective amount when Monochoria vaginalis reached 0.5 leaf stage.
(§3) The fertility condition of Monochoria vaginalis 14 days and rice 21 days after the treatment of the compound of the invention with the naked eye.

Soybean = assay: Spray drift test, application by unmanned gyroplane, soybean field at 10 meters; details: 600 g/ha, gyroplane at 1 m, gentle breeze
Procedure: Broadleaf crops are very sensitive to hormonal herbicides, therefore crop injuries are more likely to occur in case of spray drifting. Tests were conducted in gentle breeze for the compounds of the present invention. The formulation of the compounds of the present invention was applied by DJI unmanned gyroplane with application height of 1 m and water volume of 20 kg/ha. The use rate was 600 g/ha. The active ingredient was dissolved by acetone and diluted to aqueous solution of Tween 80. There's a soybean field at 10 meters from the application area and the height of soybean plants were about 15 cm at the application time.

rice (japonica rice) = assay: Transplanted rice safety evaluation in rice field soil pot; details: 1000 g/ha, 21 days after treatment
Description: as §1, §2
In addition, the rice field soil that loaded into the 1/1,000,000 ha pot was leveled to keep water storage at 3-4 cm depth. The 3-leaf stage rice (japonica rice) was transplanted at 3 cm of transplanting depth the next day. The compound of the present invention was treated by the same way after 5 days of transplantation.
as §3

Galium spurium = assay: Post-emergence test experiment (greenhouse pot, spray at 2-3 leaf stage); details: 1000 g/ha; post-emergence spray at 2-3 leaf stage; assessed after 3 weeks; fresh weight inhibition rate
Method in brief: (§4)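 Activity graded levels 0-5 by fresh-weight inhibition (level 5 above 85%, level 0 below 5%), assessed 3 weeks after treatment. Plants grown in greenhouse pots were sprayed post-emergence at 2-3 leaves using acetone/tween-80 solutions with methyl oleate synergist (1.5 L/ha).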

Indica rice = assay: as above; details: post-emergence, 600 g/ha, after 3 weeks
Method in brief: as §4

Monochoria vaginalis [2] = assay: as above; details: 1000 g/ha; post-emergence spray at 2-3 leaf stage; assessed after 3 weeks; fresh weight inhibition rate
Method in brief: as §4

Abutilon theophrasti = assay: as above; details: 1000 g/ha; post-emergence spray at 2-3 leaf stage; assessed after 3 weeks; fresh weight inhibition rate
Method in brief: as §4

Echinochloa crusgalli = assay: as above; details: for Activity level (growth inhibition rate) Echinochloa crusgalli: 1000 g/ha, post-emergence spray at 2-3 leaf stage, assessed after 3 weeks, fresh weight inhibition rate; for Echinochloa crusgalli, activity level (growth inhibition rate): post-emergence, 600 g/ha, after 3 weeks, from Hunan, resistant to ALS inhibitor herbicides
Method in brief: as §4

Japonica rice = assay: as above; details: post-emergence, 600 g/ha, after 3 weeks
Method in brief: as §4

Cyperus iria = assay: as above; details: post-emergence, 600 g/ha, after 3 weeks; from Hunan, resistant to ALS inhibitor herbicides
Method in brief: as §4

Digitaria sanguinalis = assay: as above; details: 1000 g/ha; post-emergence spray at 2-3 leaf stage; assessed after 3 weeks; fresh weight inhibition rate
Method in brief: as §4

Row | Compound | Monochoria Vaginalis, activity level (Monochoria vaginalis [1]) | Soybean, injury level by spray drift (Soybean) | Rice, safety level (rice (japonica rice)) | Activity level (growth inhibition rate) Galium spurium (Galium spurium) | Indica rice, activity level (growth inhibition rate) (Indica rice) | Activity level (growth inhibition rate) Monochoria Vaginalis (Monochoria vaginalis [2]) | Activity level (growth inhibition rate) Abutilon theophrasti (Abutilon theophrasti) | Activity level (growth inhibition rate) Echinochloa crusgalli (Echinochloa crusgalli) | Echinochloa crusgalli, activity level (growth inhibition rate) (Echinochloa crusgalli) | Japonica rice, activity level (growth inhibition rate) (Japonica rice) | Cyperus iria, activity level (growth inhibition rate) (Cyperus iria) | Activity level (growth inhibition rate) Digitaria sanguinalis (Digitaria sanguinalis)
1 | CC(Oc1nc(F)c(Cl)c(N)c1Cl)C(=O)OCc1ccccc1 (stereo not shown) [Compound 4] | 5 (Level 5: the growth inhibition rate is greater than 85%) | 0 (Level 0: the growth inhibition rate is less than 5%) | 0 (Level 0: the growth inhibition rate is less than 5%) | 5 (Level 5: the growth inhibition rate is greater than 85%) | 0 (Level 0: the growth inhibition rate is less than 5%) | 5 (Level 5: the growth inhibition rate is greater than 85%) | 5 (Level 5: the growth inhibition rate is greater than 85%) | 5 (Level 5: the growth inhibition rate is greater than 85%) | 5 (Level 5: the growth inhibition rate is greater than 85%) | 0 (Level 0: the growth inhibition rate is less than 5%) | 5 (Level 5: the growth inhibition rate is greater than 85%) | 5 (Level 5: the growth inhibition rate is greater than 85%)
2 | COc1c(Cl)ccc(COC(=O)C(C)Oc2nc(F)c(Cl)c(N)c2Cl)c1F (stereo not shown) [Compound 85] | 5 (Level 5: the growth inhibition rate is greater than 85%) |  | 0 (Level 0: the growth inhibition rate is less than 5%) | 5 (Level 5: the growth inhibition rate is greater than 85%) | 0 (Level 0: the growth inhibition rate is less than 5%) | 5 (Level 5: the growth inhibition rate is greater than 85%) | 5 (Level 5: the growth inhibition rate is greater than 85%) | 5 (Level 5: the growth inhibition rate is greater than 85%) | 5 (Level 5: the growth inhibition rate is greater than 85%) | 0 (Level 0: the growth inhibition rate is less than 5%) | 5 (Level 5: the growth inhibition rate is greater than 85%) | 5 (Level 5: the growth inhibition rate is greater than 85%)
3 | CC(Oc1nc(F)c(Cl)c(N)c1Cl)C(=O)OCc1ccccn1 (stereo not shown) [Compound 120] | 5 (Level 5: the growth inhibition rate is greater than 85%) |  | 0 (Level 0: the growth inhibition rate is less than 5%) | 5 (Level 5: the growth inhibition rate is greater than 85%) | 0 (Level 0: the growth inhibition rate is less than 5%) | 5 (Level 5: the growth inhibition rate is greater than 85%) | 5 (Level 5: the growth inhibition rate is greater than 85%) | 5 (Level 5: the growth inhibition rate is greater than 85%) | 5 (Level 5: the growth inhibition rate is greater than 85%) | 0 (Level 0: the growth inhibition rate is less than 5%) | 5 (Level 5: the growth inhibition rate is greater than 85%) | 5 (Level 5: the growth inhibition rate is greater than 85%)
4 | CC(Oc1nc(F)c(Cl)c(N)c1Cl)C(=O)SCc1cc(C2CC2)nn1C (stereo not shown) [Compound 128] | 5 (Level 5: the growth inhibition rate is greater than 85%) |  | 0 (Level 0: the growth inhibition rate is less than 5%) | 5 (Level 5: the growth inhibition rate is greater than 85%) | 0 (Level 0: the growth inhibition rate is less than 5%) | 5 (Level 5: the growth inhibition rate is greater than 85%) | 5 (Level 5: the growth inhibition rate is greater than 85%) | 5 (Level 5: the growth inhibition rate is greater than 85%) | 5 (Level 5: the growth inhibition rate is greater than 85%) | 0 (Level 0: the growth inhibition rate is less than 5%) | 5 (Level 5: the growth inhibition rate is greater than 85%) | 5 (Level 5: the growth inhibition rate is greater than 85%)
5 | CC(Oc1nc(F)c(Cl)c(N)c1Cl)C(=O)OCCc1ccoc1 (stereo not shown) [Compound 140] | 5 (Level 5: the growth inhibition rate is greater than 85%) |  | 0 (Level 0: the growth inhibition rate is less than 5%) | 5 (Level 5: the growth inhibition rate is greater than 85%) | 0 (Level 0: the growth inhibition rate is less than 5%) | 5 (Level 5: the growth inhibition rate is greater than 85%) | 5 (Level 5: the growth inhibition rate is greater than 85%) | 5 (Level 5: the growth inhibition rate is greater than 85%) | 5 (Level 5: the growth inhibition rate is greater than 85%) | 0 (Level 0: the growth inhibition rate is less than 5%) | 5 (Level 5: the growth inhibition rate is greater than 85%) | 5 (Level 5: the growth inhibition rate is greater than 85%)
6 | CC(Oc1nc(F)c(Cl)c(N)c1Cl)C(=O)SCc1ccc2ncccc2c1 (stereo not shown) [Compound 185] | 5 (Level 5: the growth inhibition rate is greater than 85%) |  | 0 (Level 0: the growth inhibition rate is less than 5%) | 5 (Level 5: the growth inhibition rate is greater than 85%) | 0 (Level 0: the growth inhibition rate is less than 5%) | 5 (Level 5: the growth inhibition rate is greater than 85%) | 5 (Level 5: the growth inhibition rate is greater than 85%) | 5 (Level 5: the growth inhibition rate is greater than 85%) | 5 (Level 5: the growth inhibition rate is greater than 85%) | 0 (Level 0: the growth inhibition rate is less than 5%) | 5 (Level 5: the growth inhibition rate is greater than 85%) | 5 (Level 5: the growth inhibition rate is greater than 85%)
